Measured values taken from PMC8319670 (Science translational medicine, 2021).
Blank lines part the entries; values can stand above or below the molecule they belong to.

Columns and labels:
H6PD [1] = biological target: T1, H6PD (Homo sapiens, UniProt O95479); experiment: H6PD IC50 assay; type: biochemical; details: for loss of H6PD inhibitory potency: relative to rucaparib
T1 sequence (O95479 20-791): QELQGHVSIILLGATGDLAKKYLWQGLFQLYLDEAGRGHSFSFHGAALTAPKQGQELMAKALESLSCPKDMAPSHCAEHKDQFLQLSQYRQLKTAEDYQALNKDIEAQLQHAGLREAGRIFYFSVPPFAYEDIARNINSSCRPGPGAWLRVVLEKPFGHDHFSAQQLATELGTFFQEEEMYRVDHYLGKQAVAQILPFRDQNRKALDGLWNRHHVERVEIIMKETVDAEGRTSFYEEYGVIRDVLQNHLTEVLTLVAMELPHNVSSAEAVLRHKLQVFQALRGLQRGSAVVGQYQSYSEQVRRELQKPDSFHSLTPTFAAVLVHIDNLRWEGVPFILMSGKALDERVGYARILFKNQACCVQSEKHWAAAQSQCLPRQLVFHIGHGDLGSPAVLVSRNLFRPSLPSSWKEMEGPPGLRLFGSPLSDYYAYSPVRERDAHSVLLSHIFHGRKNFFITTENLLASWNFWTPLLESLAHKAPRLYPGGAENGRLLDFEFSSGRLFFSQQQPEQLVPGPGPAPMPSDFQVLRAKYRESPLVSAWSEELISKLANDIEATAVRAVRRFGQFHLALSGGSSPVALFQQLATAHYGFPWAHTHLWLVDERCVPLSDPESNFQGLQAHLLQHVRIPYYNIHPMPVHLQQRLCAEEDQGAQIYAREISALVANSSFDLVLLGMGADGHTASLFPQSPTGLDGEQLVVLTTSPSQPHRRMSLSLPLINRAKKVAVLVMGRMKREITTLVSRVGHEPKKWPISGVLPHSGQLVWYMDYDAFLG

PARP-1 = details: cited from earlier work
prostate cancer cells = experiment: Glucocorticoid metabolism with apalutamide treatment; type: cell-based, human; details: similar to enzalutamide
H6PD protein = H6PD protein immunoblot in enz-treated cell lines; type: cell-based, human; details: in vitro, LAPC4, VCaP and MDA-Pca-2b; transcript not increased
H6PD [2] = experiment: H6PD protein in prostate cancer patient tissues; parameters: species or system human; details: men with prostate cancer treated with enz and prostate tissues treated ex vivo; compared with pre-treatment
[3] = system: H6PD activity in LAPC4 cells; experiment: Endoplasmic reticulum / microsomal NADPH in LAPC4 cells
H6PD [4] = biological target: T1, H6PD; experiment: Surface plasmon resonance; type: binding; details: SPR; Fig. 4A and fig. S9
H6PD [5] = biological target: T1, H6PD; experiment: In vitro H6PD activity assay; type: biochemical; details: for inhibition of H6PD activity: fig. S10
G6PD = G6PD (Homo sapiens, UniProt P11413); experiment: G6PD activity assay; type: biochemical; details: fig. S10
G6PD, sequence (P11413 whole entry): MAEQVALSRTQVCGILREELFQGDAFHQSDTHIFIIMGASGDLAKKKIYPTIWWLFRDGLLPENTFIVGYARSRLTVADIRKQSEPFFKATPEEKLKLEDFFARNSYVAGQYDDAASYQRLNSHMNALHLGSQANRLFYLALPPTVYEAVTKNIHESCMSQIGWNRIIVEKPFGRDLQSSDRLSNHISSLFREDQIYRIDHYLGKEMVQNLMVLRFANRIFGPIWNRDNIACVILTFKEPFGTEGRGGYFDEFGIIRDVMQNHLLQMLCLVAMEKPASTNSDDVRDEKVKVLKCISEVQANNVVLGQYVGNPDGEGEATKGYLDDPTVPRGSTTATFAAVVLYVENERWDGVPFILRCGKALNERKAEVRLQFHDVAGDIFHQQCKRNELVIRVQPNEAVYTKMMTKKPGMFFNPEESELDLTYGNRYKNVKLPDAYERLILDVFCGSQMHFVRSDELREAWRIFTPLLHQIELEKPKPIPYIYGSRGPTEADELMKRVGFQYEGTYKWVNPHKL

[6] = system: enz-resistant LAPC4 cells; experiment: Cell viability assay; type: cell-based, human; details: 100 nM cortisol with 10 μM enz, 5 days; Fig 4E
H6PD [7] = details: of four PARP inhibitors; cited from earlier work

loss of H6PD inhibitory potency (H6PD [1]): greater than 20 x
SMILES: CNCc1ccc(-c2[nH]c3cccc4c3c2CCNC4=O)cc1 [Compound 2]

loss of H6PD inhibitory potency (H6PD [1]): ~ 10 x
SMILES: CNCc1ccc(-c2[nH]c3cc(F)cc4c3c2CCN(C)C4=O)cc1 [Compound 4]

IC50 (H6PD [1]; read-out: H6PD IC50): 27 µM
SMILES: O=C1NCCc2c(-c3ccc(CO)cc3)[nH]c3cc(F)cc1c23 [Compound 5]
PARP inhibition activity (PARP-1): poor PARP inhibition activity

binding to H6PD (H6PD [4]): specifically bound H6PD | inhibition of H6PD activity (H6PD [5]): inhibited H6PD activity | inhibition of H6PD activity (H6PD [5]; listed as Rucaparib): modest H6PD inhibitor | inhibition of G6PD activity (G6PD): neither inhibited G6PD activity
SMILES: CNCc1ccc(-c2[nH]c3cc(F)cc4c3c2CCNC4=O)cc1 [rucaparib]
H6PD generation of NADPH in vitro (H6PD [5]; H6PD protein, D-glucosamine 6-phosphate and NADP, 1 hour, Fig 4B): inhibited H6PD generation of NADPH in vitro | cell viability [6]: limited cell viability in vitro | off-target H6PD inhibition (H6PD [7]): off-target H6PD inhibition was specifically identified only with rucaparib | H6PD generation of NADPH in enz-resistant prostate cancer ([3]; enz-resistant LAPC4 cells, 24 hours, microsomal NADPH, Fig 4C): inhibited H6PD generation of NADPH

Continued, molecule first:

SMILES: CNC(=O)c1ccc(N2C(=S)N(c3cnc(C#N)c(C(F)(F)F)c3)C(=O)C23CCC3)cc1F [apalutamide]
changes in glucocorticoid metabolism (prostate cancer cells): induces similar changes in glucocorticoid metabolism

SMILES: CNC(=O)c1ccc(N2C(=S)N(c3ccc(C#N)c(C(F)(F)F)c3)C(=O)C2(C)C)cc1F [enzalutamide]
H6PD protein (H6PD protein): increased | H6PD in patient tissues post-treatment (H6PD [2]): increase in H6PD was also detectable | increase in NADPH generation in the endoplasmic reticulum ([3]; LAPC4 cells, continuous enz treatment, p<0.0001): > 2 fold

SMILES: O=C(c1cc(Cc2n[nH]c(=O)c3ccccc23)ccc1F)N1CCN(C(=O)C2CC2)CC1 [olaparib]
binding to H6PD (H6PD [4]): but not olaparib (another PARP inhibitor) specifically bound H6PD | inhibition of H6PD activity (H6PD [5]): but not olaparib inhibited H6PD activity | inhibition of G6PD activity (G6PD): neither inhibited G6PD activity
